Laboratory results reported in patent publication US20100069502A1, “Assay” (priority 2006, published 2010).

Legend:
Assay type in all cases: cell-based
[1] = tested on: PPM phosphatase; assay: Mg2+ dependent, okadaic acid resistant casein phosphatase (PPM phosphatase) activity in HEK293 cell lysates; settings: HEK293 cells, 2 mM metformin
Experimental: (§1) A PPM phosphatase activity in treated and untreated HEK293 cell lysates using casein as substrate in the presence of 10 mM MgAc and 5 μM okadaic acid. Data are mean±SEM with five independent samples measured in duplicate. (p<0.001). B PPM phosphatase activity in treated and untreated HeLa cell lysates using casein as substrate in the presence of 10 mM MgAc and 5 μM okadaic acid. Data are mean±SEM with four independent samples measured in duplicate. (p<0.001).
(§2) To study the effects of biguanide on the activity of protein phosphatases, HEK293 cell lysates either untreated or treated with biguanide (10 mM phenformin in this example—as described above) were either immunoblotted or assayed for specific protein phosphatase activity by using combinations of phosphatase inhibitors and activators, as well as different phosphorylated substrates.
(§3) The activity of PP2C (PPM1) and related members of the PPM family was assessed using ^32P-labelled casein as substrate with 5 μM okadaic acid included in the reaction to inhibit PP2A, and 10 mM magnesium acetate, which is known to be required for the activity of PP2C (Ingebritsen and Cohen, 1983 Science vol 221, pp 331-338; Ingebritsen et al., 1983 Eur J Biochem vol 132, pp 263-274).

[2] = target: T1, PPM1E (Homo sapiens, UniProt Q8WY54); assay: Activity of PPM phosphatase immunoprecipitated from HEK293 cell lysates, casein substrate; settings: HEK293 cells, 2 mM metformin for 10 minutes prior to lysis
T1 construct: The PPM1A1 and PPM1E isoforms were immunoprecipitated in triplicate from untreated or metformin-treated HEK293 cell lysates; endogenous in cells; host or cells: HEK293
T1 sequence (Q8WY54 1-755): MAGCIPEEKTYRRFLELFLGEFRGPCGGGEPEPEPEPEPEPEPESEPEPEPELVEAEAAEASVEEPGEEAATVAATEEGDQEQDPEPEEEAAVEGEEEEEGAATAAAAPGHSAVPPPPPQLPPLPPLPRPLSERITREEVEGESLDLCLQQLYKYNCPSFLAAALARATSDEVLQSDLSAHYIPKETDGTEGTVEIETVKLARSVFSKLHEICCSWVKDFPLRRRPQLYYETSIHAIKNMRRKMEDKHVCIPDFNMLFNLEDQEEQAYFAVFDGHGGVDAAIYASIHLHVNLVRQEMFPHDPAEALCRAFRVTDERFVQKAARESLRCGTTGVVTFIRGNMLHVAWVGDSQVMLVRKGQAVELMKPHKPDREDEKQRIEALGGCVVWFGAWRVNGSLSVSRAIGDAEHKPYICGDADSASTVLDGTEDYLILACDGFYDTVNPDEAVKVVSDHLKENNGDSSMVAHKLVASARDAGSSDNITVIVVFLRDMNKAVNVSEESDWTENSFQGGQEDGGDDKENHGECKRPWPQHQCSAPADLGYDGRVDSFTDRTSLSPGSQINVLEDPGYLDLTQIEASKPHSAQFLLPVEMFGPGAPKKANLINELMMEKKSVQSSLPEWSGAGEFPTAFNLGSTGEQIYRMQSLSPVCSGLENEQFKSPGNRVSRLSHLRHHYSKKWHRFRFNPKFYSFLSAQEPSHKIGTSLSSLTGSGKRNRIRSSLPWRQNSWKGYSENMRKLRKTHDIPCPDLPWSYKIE
Experimental: PPM1E is immunopelleted with antibodies raised the amino acid sequence […] and the phosphatase activity in the immunopellet is measured in a protein phosphatase assay using 32P-labelled casein as substrate in the presence of 10 mM Mg2+ or Mn2+ ions and 5 μM okadaic acid.
(§4) PPM phosphatase activity in HEK293 cell lysates either untreated or treated with 10 mM phenformin for 1 hour. Individual isoforms were immunoprecipitated from control or phenformin-treated cell lysates and activity measured using ^32P labelled casein as substrate in the presence of 10 mM MgAc and […] acid. Data are mean activities for assays performed in triplicate.
(§5) To determine with greater certainty which PPM phosphatases are affected by biguanide, the PPM phosphatase activity associated with each of the PPM enzymes was assessed. […] No change could be detected in the PPM phosphatases associated with PPM1A1, PPM1B1, PPM1B2, PPM1D, PPM1G, ILKAP, Nerpp, PDPC1 or PDPC2. […] Following immunoprecipitation and immunoblotting of the PPM1E immunoprecipitate from untreated HEK293 cells, no signal could be detected using an antibody directed against PPM1E.
HEK293 cells were treated with 2 mM metformin for 10 minutes prior to lysis. […] Control immunoprecipitations were preformed in triplicate for each lysate using pre-immune antibody and subtracted from the activity calculated for the PPM phosphatase immunoprecipitations. […]

[3] = tested on: PPM phosphatase; assay: Mg2+ dependent, okadaic acid resistant casein phosphatase (PPM phosphatase) activity in HeLa cell lysates; settings: HeLa cells, 2 mM metformin
Experimental: as §1, §3
To test whether phenformin is able to have similar effects in this cell line, PPM phosphatase activity in HeLa cells either untreated or treated with 10 mM phenformin was assessed. Again, a ˜20% decrease in PPM phosphatase activity could be observed in cells treated with phenformin (FIG. 2B). In this experiment, the activity of many PP2C isoforms is measured, and the 20% decrease observed may represent a more severe decrease in activity of only one such isoform.

[4] = tested on: PP2A; assay: PP2A phosphorylase phosphatase activity in HEK293 cell lysates; settings: 10 mM phenformin, 32P labelled phosphorylase a, 200 nM I-2
Experimental: (§6) A Levels of phosphorylation of AMPK at Thr172 in 4 untreated and 4 treated samples. Anti-PP5 TPR domain antibody is used as a loading control. Molecular weights (kDa) are indicated to the left of the panels. B PP1 phosphorylase phosphatase activity in treated and untreated HEK293 cell lysates using phosphorylase a as substrate, in the presence of 4 nM okadaic acid. Data are mean±SEM for four samples measured in triplicate. C PP2A phosphorylase phosphatase activity in treated and untreated HEK293 cell lysates using phosphorylase a as substrate, in the presence of 200 nM I-2. Data are mean±SEM for four samples measured in triplicate. […]
The activity of PP2A in response to phenformin was also assessed using ^32P labelled phosphorylase a as substrate, but for this assay 200 nM I-2 and EGTA (0.1-2 mM) to inhibit metal ion activated protein phosphatases was included to inhibit PP1. No change in the PP2A phosphorylase phosphatase activity could be detected between unstimulated and 10 mM-phenformin stimulated cell lysates (FIG. 1C).

[5] = target: T2, PPM1F (Homo sapiens, UniProt P49593); assay: Activity of PPM phosphatase immunoprecipitated from HEK293 cell lysates, casein substrate
T2 construct: endogenous in cells; host or cells: HEK293
T2 sequence (P49593 1-454): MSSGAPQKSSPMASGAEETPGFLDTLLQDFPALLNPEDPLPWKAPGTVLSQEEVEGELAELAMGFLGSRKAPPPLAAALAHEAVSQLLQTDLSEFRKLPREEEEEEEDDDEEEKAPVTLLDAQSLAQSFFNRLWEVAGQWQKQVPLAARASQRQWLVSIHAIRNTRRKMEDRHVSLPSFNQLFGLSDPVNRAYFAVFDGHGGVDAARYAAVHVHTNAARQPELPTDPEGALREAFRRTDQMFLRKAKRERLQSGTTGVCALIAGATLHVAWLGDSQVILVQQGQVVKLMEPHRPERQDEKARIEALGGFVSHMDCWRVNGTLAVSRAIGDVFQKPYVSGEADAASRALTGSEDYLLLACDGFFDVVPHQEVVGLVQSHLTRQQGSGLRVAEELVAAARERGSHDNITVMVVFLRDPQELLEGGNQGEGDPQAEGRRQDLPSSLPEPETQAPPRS
Experimental: PPM1F is immunopelleted with antibodies raised the amino acid sequence […] and the phosphatase activity in the immunopellet is measured in a protein phosphatase assay using 32P-labelled casein as substrate in the presence of 10 mM Mg2+ or Mn2+ ions and 5 μM okadaic acid.
as §4
as §5, with “assessed. In this example, the biguanides are metformin and phenformin.” for “assessed.”

[6] = tested on: PP5; assay: PP5 levels by immunoblotting in HEK293 cell lysates; settings: HEK293 cells, 10 mM phenformin, antibody against TPR domains
Experimental: as §2
Since the activity of PP5 in HEK293 cells is low, the levels of PP5 were assessed by immunoblotting using an antibody against the TPR domains of the protein.

[7] = tested on: PP1; assay: PP1 phosphorylase phosphatase activity in HEK293 cell lysates; settings: 10 mM phenformin, 32P-labelled phosphorylase a, 4 mM okadaic acid
Experimental: as §6
The activity of PP1 in response to phenformin was assessed using ^32P-labelled phosphorylase a as substrate with […] okadaic acid included in the reaction in order to inhibit the activity of PP2A and EGTA (0.1-2 mM) to inhibit metal ion activated protein phosphatases. No change in PP1 phosphorylase phosphatase activity could be detected between unstimulated and 10 mM-phenformin stimulated cell lysates (FIG. 1B).

| activity of immunoprecipitated PPM1E [2] | activity of immunoprecipitated PPM1E ([2]; listed as Metformin) | SMILES | decrease in PPM phosphatase activity [1] [%] | decrease in PPM phosphatase activity [3] [%] | PP2A phosphorylase phosphatase activity [4] | activity of immunoprecipitated PPM1F, % of the levels of untreated cells ([5]; HEK293 cells treated with phenformin) [%] | decrease in activity of immunoprecipitated PPM1F ([5]; HEK293 cells, 10 mM phenformin) [%] | levels of PP5 [6] | PP1 phosphorylase phosphatase activity [7] |
| --- | --- | --- | --- | --- | --- | --- | --- | --- | --- |
| almost completely ablated | Substantial specific knockdown | CN(C)C(=N)N=C(N)N [metformin, 1-(diaminomethylidene)-3,3-dimethyl-guanidine] | 20 | 20 |  |  |  |  |  |
|  |  | [H]/N=C(/N)N/C(=N/[H])NCCc1ccccc1 [phenformin, phenylethylbiguanide] |  |  | no effect | ~60 | ~40 | no effect | no effect |
